In the supplement of paper PMC11451515:

Assays:
Settings in all cases: 48 h
SEM cells [1] = experiment: cell viability relative to DMSO control; higher = less cytotoxic
Procedure, shortened: (§1)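 Library compounds in DMSO were pin-dosed into 1536-well plates (5 μl) holding NOMO1 or SEM (500 cells/well) or P12-Ichikawa (1000 cells/well) leukemia cells, across an 11-point threefold series of 47 μM to 0.79 nM. Each cell line had been adapted for at least four passages in each medium. CellTiter-Glo One luminescence was read after 48 h at 37°C. Viability is the per-plate percentage relative to DMSO wells, with cell-free wells as background.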

NOMO1 [2] = experiment: AUC of viability dose-response curve (% viability x log10 dose units); higher = less sensitive
Procedure, shortened: (§2)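 Viability of medium-adapted leukemia cells was measured by CellTiter-Glo One luminescence after 48 h at 37°C with library compounds in DMSO. Doses were 11 threefold steps from 47 μM to 0.79 nM, in 1536-well plates at 500 or 1000 cells/well. Signals were normalised per plate to DMSO and cell-free wells and fitted with a four-parameter log-logistic model on log10 dose. Area under the curve was integrated by trapezoidal rule, with curves exceeding full viability scaled and failed quality-control curves removed.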

P12-Ichikawa [3] = experiment: as above
Procedure, shortened: as §2

SEM cells [4] = experiment: as above
Procedure, shortened: as §2

NOMO1 [5] = experiment: cell viability relative to DMSO control; higher = less cytotoxic
Procedure, shortened: as §1

P12-Ichikawa [6] = experiment: as above
Procedure, shortened: as §1

COC(=O)C/1=C/O[C@@H](O)[C@H]\2[C@@H]1C\C=C2CO
SEM cells [1], HPLM + 10% dialyzed FBS
Settings | cell viability [%]
0.000781 µM | 98.6
0.00234 µM | 116
0.00702 µM | 101
0.0211 µM | 114
0.0632 µM | 138
0.19 µM | 114
0.569 µM | 126
1.71 µM | 112
5.12 µM | 112
15.4 µM | 104
46.1 µM | 76.9

AUC of viability dose-response curve
Settings | NOMO1 [2] | P12-Ichikawa [3] | SEM cells [4]
HPLM + 10% dialyzed FBS | 472 | 469 | 465
RPMI 5 mM glucose + 10% FBS | 461 | 466 | 462
RPMI 5 mM glucose + 10% dialyzed FBS | 467 | 466 | 454

CCC1=C2C=C(OC(=O)N3CCC(CC3)N4CCCCC4)C=CC2=NC\5=C1CN6C(=O)\C7=C(/C=C56)[C@@](O)(CC)C(=O)OC7
SEM cells [1], RPMI 5 mM glucose + 10% FBS
Settings | cell viability [%]
0.000781 µM | 110
0.00234 µM | 127
0.00702 µM | 104
0.0211 µM | 106
0.0632 µM | 49.5
0.19 µM | 104
0.569 µM | 107
1.71 µM | 65.2
5.12 µM | 15.4
15.4 µM | 13.1
46.1 µM | 9.69

AUC of viability dose-response curve
Settings | NOMO1 [2] | P12-Ichikawa [3] | SEM cells [4]
HPLM + 10% dialyzed FBS | 380 | 324 | 366
RPMI 5 mM glucose + 10% FBS | 380 | 313 | 356
RPMI 5 mM glucose + 10% dialyzed FBS | 380 | 326 | 353

CN1[C@@H]2CC(O)C[C@H]1[C@@H]1O[C@@H]12 (stereo not given in full)
cell viability [%]
Settings | NOMO1 [5] | P12-Ichikawa [6] | SEM cells [1]
HPLM + 10% dialyzed FBS, 0.000781 µM | – | 122 | –
HPLM + 10% dialyzed FBS, 0.00234 µM | – | 121 | –
HPLM + 10% dialyzed FBS, 0.00702 µM | – | 124 | –
HPLM + 10% dialyzed FBS, 0.0211 µM | – | 105 | –
HPLM + 10% dialyzed FBS, 0.0632 µM | – | 119 | –
HPLM + 10% dialyzed FBS, 0.19 µM | – | 115 | –
HPLM + 10% dialyzed FBS, 0.569 µM | – | 119 | –
HPLM + 10% dialyzed FBS, 1.71 µM | – | 120 | –
HPLM + 10% dialyzed FBS, 5.12 µM | – | 114 | –
HPLM + 10% dialyzed FBS, 15.4 µM | – | 119 | –
HPLM + 10% dialyzed FBS, 46.1 µM | – | 6.79 | –
RPMI 5 mM glucose + 10% FBS, 0.000781 µM | 111 | 122 | 124
RPMI 5 mM glucose + 10% FBS, 0.00234 µM | 125 | 113 | 123
RPMI 5 mM glucose + 10% FBS, 0.00702 µM | 121 | 123 | 114
RPMI 5 mM glucose + 10% FBS, 0.0211 µM | 121 | 119 | 19.5
RPMI 5 mM glucose + 10% FBS, 0.0632 µM | 113 | 135 | 134
RPMI 5 mM glucose + 10% FBS, 0.19 µM | 118 | 121 | 115
RPMI 5 mM glucose + 10% FBS, 0.569 µM | 103 | 119 | 109
RPMI 5 mM glucose + 10% FBS, 1.71 µM | 113 | 125 | 130
RPMI 5 mM glucose + 10% FBS, 5.12 µM | 121 | 107 | 115
RPMI 5 mM glucose + 10% FBS, 15.4 µM | 111 | 104 | 109
RPMI 5 mM glucose + 10% FBS, 46.1 µM | 6.78 | 18.3 | 7.57
RPMI 5 mM glucose + 10% dialyzed FBS, 0.000781 µM | – | 118 | 101
RPMI 5 mM glucose + 10% dialyzed FBS, 0.00234 µM | – | 119 | 126
RPMI 5 mM glucose + 10% dialyzed FBS, 0.00702 µM | – | 127 | 116
RPMI 5 mM glucose + 10% dialyzed FBS, 0.0211 µM | – | 112 | 21.8
RPMI 5 mM glucose + 10% dialyzed FBS, 0.0632 µM | – | 125 | 103
RPMI 5 mM glucose + 10% dialyzed FBS, 0.19 µM | – | 120 | 111
RPMI 5 mM glucose + 10% dialyzed FBS, 0.569 µM | – | 120 | 103
RPMI 5 mM glucose + 10% dialyzed FBS, 1.71 µM | – | 113 | 106
RPMI 5 mM glucose + 10% dialyzed FBS, 5.12 µM | – | 106 | 94.3
RPMI 5 mM glucose + 10% dialyzed FBS, 15.4 µM | – | 120 | 81.4
RPMI 5 mM glucose + 10% dialyzed FBS, 46.1 µM | – | 4.64 | 5.54

AUC of viability dose-response curve
Settings | HPLM + 10% dialyzed FBS | RPMI 5 mM glucose + 10% FBS | RPMI 5 mM glucose + 10% dialyzed FBS
NOMO1 [2] | 451 | 453 | 451
P12-Ichikawa [3] | 455 | 448 | 454

CC(C)[C@@H](N(CCCN)C(=O)C1=CC=C(C)C=C1)C/2=C(\CC3=CC=CC=C3)C(=O)C4=C(O2)C=C(Cl)C=C4
cell viability [%]
Settings | NOMO1 [5] | P12-Ichikawa [6] | SEM cells [1]
HPLM + 10% dialyzed FBS, 0.000781 µM | 47.8 | 37.7 | 22.2
HPLM + 10% dialyzed FBS, 0.00234 µM | 38.1 | 12.6 | 26.3
HPLM + 10% dialyzed FBS, 0.00702 µM | 34.7 | 11.5 | 24.4
HPLM + 10% dialyzed FBS, 0.0211 µM | 35.9 | 14.2 | 24.6
HPLM + 10% dialyzed FBS, 0.0632 µM | 40.9 | 9.91 | 26.6
HPLM + 10% dialyzed FBS, 0.19 µM | 45.8 | 11.7 | 23.9
HPLM + 10% dialyzed FBS, 0.569 µM | 34.9 | 12.2 | 28.2
HPLM + 10% dialyzed FBS, 1.71 µM | 36.3 | 11 | 25.2
HPLM + 10% dialyzed FBS, 5.12 µM | 32.5 | 10.3 | 25.7
HPLM + 10% dialyzed FBS, 15.4 µM | 40.7 | 11.8 | 26.6
HPLM + 10% dialyzed FBS, 46.1 µM | 4.73 | 12.8 | 5.56
RPMI 5 mM glucose + 10% FBS, 0.000781 µM | 20.1 | 18.4 | 13.8
RPMI 5 mM glucose + 10% FBS, 0.00234 µM | 26.5 | 15.8 | 20.2
RPMI 5 mM glucose + 10% FBS, 0.00702 µM | 29 | 15 | 19.9
RPMI 5 mM glucose + 10% FBS, 0.0211 µM | 26.4 | 18.5 | 22.5
RPMI 5 mM glucose + 10% FBS, 0.0632 µM | 21.9 | 18 | 20
RPMI 5 mM glucose + 10% FBS, 0.19 µM | 29 | 17.6 | 22.6
RPMI 5 mM glucose + 10% FBS, 0.569 µM | 21.1 | 14 | 22.4
RPMI 5 mM glucose + 10% FBS, 1.71 µM | 23.9 | 17.7 | 19.1
RPMI 5 mM glucose + 10% FBS, 5.12 µM | 27.2 | 15.8 | 27.9
RPMI 5 mM glucose + 10% FBS, 15.4 µM | 31.7 | 15.7 | 20.9
RPMI 5 mM glucose + 10% FBS, 46.1 µM | 7.48 | 9.01 | 13.9
RPMI 5 mM glucose + 10% dialyzed FBS, 0.000781 µM | 48.7 | 70.7 | 18.5
RPMI 5 mM glucose + 10% dialyzed FBS, 0.00234 µM | 34.7 | 20.4 | 20.5
RPMI 5 mM glucose + 10% dialyzed FBS, 0.00702 µM | 29.5 | 20.7 | 20
RPMI 5 mM glucose + 10% dialyzed FBS, 0.0211 µM | 30.9 | 21.9 | 25.6
RPMI 5 mM glucose + 10% dialyzed FBS, 0.0632 µM | 35.1 | 22.4 | 19.4
RPMI 5 mM glucose + 10% dialyzed FBS, 0.19 µM | 34.6 | 22.5 | 26.5
RPMI 5 mM glucose + 10% dialyzed FBS, 0.569 µM | 27.2 | 18.6 | 20
RPMI 5 mM glucose + 10% dialyzed FBS, 1.71 µM | 32.8 | 20.9 | 21.1
RPMI 5 mM glucose + 10% dialyzed FBS, 5.12 µM | 29.6 | 21.2 | 20.8
RPMI 5 mM glucose + 10% dialyzed FBS, 15.4 µM | 33.5 | 19.8 | 18.5
RPMI 5 mM glucose + 10% dialyzed FBS, 46.1 µM | 5.92 | 16.2 | 19.4

SEM cells [4]
Settings | AUC of viability dose-response curve
HPLM + 10% dialyzed FBS | 116
RPMI 5 mM glucose + 10% FBS | 96.8
RPMI 5 mM glucose + 10% dialyzed FBS | 99.8

COC1=C(OC)C(=O)C(C/C=C(\C)CC/C=C(\C)CC/C=C(\C)CC/C=C(\C)CC/C=C(\C)CC/C=C(\C)CC/C=C(\C)CC/C=C(\C)CC/C=C(\C)CCC=C(C)C)=C(C)C1=O
cell viability [%], SEM cells [1]
Settings | HPLM + 10% dialyzed FBS | RPMI 5 mM glucose + 10% dialyzed FBS
0.000781 µM | 104 | 104
0.00234 µM | 101 | 129
0.00702 µM | 97.5 | 120
0.0211 µM | 92.4 | 106
0.0632 µM | 129 | 112
0.19 µM | 110 | 124
0.569 µM | 60.3 | 56.4
1.71 µM | 53.3 | 43.4
5.12 µM | 138 | 123
15.4 µM | 128 | 126
46.1 µM | 124 | 120

AUC of viability dose-response curve
Settings | NOMO1 [2] | P12-Ichikawa [3] | SEM cells [4]
HPLM + 10% dialyzed FBS | 461 | 453 | 442
RPMI 5 mM glucose + 10% FBS | 453 | 435 | 469
RPMI 5 mM glucose + 10% dialyzed FBS | 466 | 461 | 456
